# Active and inactive are the calls of the source.
# Key:
# [1] = molecular target: T1, Type-1 angiotensin II receptor (Homo sapiens, UniProt P30556); assay: AT1 receptor agonists, dose response, selectivity assay for APJ receptor agonist project, cell-based, uHTS hits (AID 488865); type: functional;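 note: beta-arrestin recruitment to AT1 measured by enzyme fragment complementation luminescence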
# T1 sequence (P30556 whole entry): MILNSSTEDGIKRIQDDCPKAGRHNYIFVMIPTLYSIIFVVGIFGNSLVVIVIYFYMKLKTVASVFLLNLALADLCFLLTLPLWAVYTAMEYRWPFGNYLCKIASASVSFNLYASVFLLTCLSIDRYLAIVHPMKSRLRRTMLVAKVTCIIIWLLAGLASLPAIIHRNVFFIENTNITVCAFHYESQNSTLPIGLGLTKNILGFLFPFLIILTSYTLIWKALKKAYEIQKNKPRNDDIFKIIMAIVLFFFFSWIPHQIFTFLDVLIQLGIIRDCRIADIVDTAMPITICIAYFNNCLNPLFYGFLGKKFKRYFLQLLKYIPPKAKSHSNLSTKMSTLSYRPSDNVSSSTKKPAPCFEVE
# Large T antigen = Large T antigen (Simian virus 40, UniProt P03070); assay: A confirmatory biochemical assay using the ADP-Hunter methodology, purified TAg, and ATP to quantify activity of synthesized compounds that inhibit the ATPase activity of Tag (3). [Related pubchem assays (depositor defined):AID1903, AID1909, AID2102, AID2501, AID2615, AID2775, AID435001, AID449729]; design: species or system Betapolyomavirus macacae
# [2] = SV40 cytopathic effect inhibition and cytotoxicity, confirmation, BSC cells, set 3 (AID 485276); type: functional, cell-based
# [3] = cytotoxicity toward DRD oncogenic fibroblasts, dose response, cell-based, non-viral oncogenic, luminescence (AID 1934); type: functional; conditions: Homo sapiens
# HEK293 = assay: inhibitors of LMP1-driven NF-kB reporter, dose response, cell-based, HEK293, luciferase, cherry-pick (AID 588343); type: functional; conditions: Homo sapiens
# BJ [4] = assay: cytotoxicity toward BJ-TERT fibroblasts, dose response, cell-based, RAS-independent, luminescence (AID 1933); type: functional; conditions: Homo sapiens
# [5] = molecular target: T2, Apoptotic protease-activating factor 1 (Homo sapiens, UniProt O14727); type: functional
# T2 sequence (O14727 whole entry): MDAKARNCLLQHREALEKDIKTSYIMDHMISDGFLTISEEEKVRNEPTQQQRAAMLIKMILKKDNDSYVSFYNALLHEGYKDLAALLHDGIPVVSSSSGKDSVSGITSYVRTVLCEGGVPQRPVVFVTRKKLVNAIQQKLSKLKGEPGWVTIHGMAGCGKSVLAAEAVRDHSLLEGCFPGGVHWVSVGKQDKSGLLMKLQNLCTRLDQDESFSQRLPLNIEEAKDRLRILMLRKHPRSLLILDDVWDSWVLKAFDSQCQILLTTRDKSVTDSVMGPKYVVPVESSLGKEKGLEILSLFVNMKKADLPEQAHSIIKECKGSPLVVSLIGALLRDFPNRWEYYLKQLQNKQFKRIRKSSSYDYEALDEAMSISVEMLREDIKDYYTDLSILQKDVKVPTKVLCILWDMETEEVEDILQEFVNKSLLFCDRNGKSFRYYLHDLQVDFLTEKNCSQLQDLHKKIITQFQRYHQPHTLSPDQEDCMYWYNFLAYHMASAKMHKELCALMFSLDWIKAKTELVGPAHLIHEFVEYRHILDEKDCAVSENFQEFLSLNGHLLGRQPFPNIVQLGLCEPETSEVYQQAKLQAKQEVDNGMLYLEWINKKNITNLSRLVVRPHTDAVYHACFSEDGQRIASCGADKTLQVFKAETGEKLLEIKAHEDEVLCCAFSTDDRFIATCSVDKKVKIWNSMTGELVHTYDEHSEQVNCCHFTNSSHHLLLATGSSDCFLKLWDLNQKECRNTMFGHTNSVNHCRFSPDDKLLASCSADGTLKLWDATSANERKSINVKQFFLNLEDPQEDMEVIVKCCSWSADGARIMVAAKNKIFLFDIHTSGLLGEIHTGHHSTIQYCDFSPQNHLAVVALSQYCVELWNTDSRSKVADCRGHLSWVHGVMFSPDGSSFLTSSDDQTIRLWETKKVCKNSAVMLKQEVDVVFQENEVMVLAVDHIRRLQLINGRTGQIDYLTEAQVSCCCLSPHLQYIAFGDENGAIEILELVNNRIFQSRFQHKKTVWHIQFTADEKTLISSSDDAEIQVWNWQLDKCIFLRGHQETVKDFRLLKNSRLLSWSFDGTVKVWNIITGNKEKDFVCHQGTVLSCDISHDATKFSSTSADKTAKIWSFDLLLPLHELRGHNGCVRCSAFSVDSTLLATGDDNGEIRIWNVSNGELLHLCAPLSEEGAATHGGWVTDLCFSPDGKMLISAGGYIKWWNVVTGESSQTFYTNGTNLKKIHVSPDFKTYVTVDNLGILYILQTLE
# BJ [6] = assay: cells; type: functional, cell-based; conditions: Homo sapiens
# [7] = Luminescence Cell-Based Dose Response HTS to Identify Inhibitors of 5'UTR Stem-Loop Driven Prion Protein mRNA Translation in H4 Neuroglioblastoma Cells. [Related pubchem assays: 1827 (Project Summary), 1813 (Primary HTS)]; type: functional
# [8] = cytotoxicity in HEK-293T cells, dose response, cytotoxicity control for TCR NF-kB inhibitor project, luminescence, T-cell screen hits (AID 489026); type: functional, cell-based;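 note: cells exposed to compound about 14 hours before the viability readout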
# [9] = NIH-3T3 fibroblast cytotoxicity, dose response, cytotoxicity control, cell-based, fluorescence, Alamar Blue, secondary assay (AID 2327); type: functional;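 note: NIH-3T3 mouse fibroblasts cultured with fluconazole at 8 µg/mL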
# [10] = inhibitors of firefly luciferase expression or activity, dose response, H4 neuroglioma cells, luminescence (AID 1990); type: functional, cell-based
# Hexokinase-1 = Hexokinase-1 (Homo sapiens, UniProt P19367); assay: hexokinase 1 activators, dose response, selectivity assay for HKDC1 activator project, biochemical (AID 504762); type: functional
# [11] = inhibitors of SNCA 5'UTR-driven reporter translation, confirmation, H4 neuroglioma cells, luminescence (AID 1988); type: functional, cell-based
# BJ [12] = assay: cytotoxicity toward Ras-transformed BJeLR fibroblasts, dose response, cell-based, alamar blue fluorescence, cherrypicked samples (AID 2631); type: functional; conditions: Homo sapiens;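 note: confirmatory dose-response assay in RAS-dependent BJ fibroblasts engineered with TERT, LT and ST, with cytotoxicity read by fluorescence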
# Hexokinase HKDC1 = molecular target: T3, Hexokinase HKDC1 (Homo sapiens, UniProt Q2TB90); assay: HKDC1 hexokinase activators, dose response, biochemical, W721R variant (AID 504730); type: functional
# T3 sequence (Q2TB90 whole entry): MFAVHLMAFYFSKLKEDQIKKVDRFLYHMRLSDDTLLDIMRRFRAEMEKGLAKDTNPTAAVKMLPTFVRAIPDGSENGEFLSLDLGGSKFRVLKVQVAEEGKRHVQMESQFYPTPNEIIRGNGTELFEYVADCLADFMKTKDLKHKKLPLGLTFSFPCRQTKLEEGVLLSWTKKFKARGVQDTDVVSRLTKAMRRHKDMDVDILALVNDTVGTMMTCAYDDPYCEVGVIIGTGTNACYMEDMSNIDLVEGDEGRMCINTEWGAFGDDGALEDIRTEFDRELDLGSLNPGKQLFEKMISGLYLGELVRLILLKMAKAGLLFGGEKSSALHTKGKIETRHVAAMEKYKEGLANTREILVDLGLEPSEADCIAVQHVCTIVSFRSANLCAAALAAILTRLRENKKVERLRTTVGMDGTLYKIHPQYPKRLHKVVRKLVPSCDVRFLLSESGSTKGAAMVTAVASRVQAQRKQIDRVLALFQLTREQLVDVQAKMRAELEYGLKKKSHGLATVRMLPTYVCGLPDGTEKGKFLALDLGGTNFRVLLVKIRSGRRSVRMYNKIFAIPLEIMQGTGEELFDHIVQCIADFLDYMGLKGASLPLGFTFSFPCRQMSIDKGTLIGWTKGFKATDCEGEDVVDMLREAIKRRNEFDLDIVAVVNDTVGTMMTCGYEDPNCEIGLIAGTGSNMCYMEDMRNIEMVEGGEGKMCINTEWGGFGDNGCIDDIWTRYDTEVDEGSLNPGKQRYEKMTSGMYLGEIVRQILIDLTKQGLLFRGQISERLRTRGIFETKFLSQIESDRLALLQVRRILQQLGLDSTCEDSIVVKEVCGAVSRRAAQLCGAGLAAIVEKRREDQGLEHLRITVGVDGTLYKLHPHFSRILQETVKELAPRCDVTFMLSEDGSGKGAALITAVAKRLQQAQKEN
# [13] = C. albicans growth with fluconazole, confirmation, fluorescence, retest (AID 2467); type: functional, cell-based
# INS1 = assay: beta cell apoptosis inhibitors, cytokine rescue, dose response, luminescence, retest (AID 449756); type: functional, cell-based; conditions: Rattus norvegicus;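 note: cell death triggered by IL-1 beta plus TNF-alpha plus IFN-gamma mixture; protective hits raise ATP signal compared with cytokine alone wells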
# [14] = molecular target: T4, Tyrosine-protein phosphatase non-receptor type 7 (Homo sapiens, UniProt P35236); assay: SAR analysis of chemical inhibitors of HePTP using a Fluorescent assay - Set 2. [Related pubchem assays (depositor defined):AID1059, AID1077, AID1661, AID2085, AID521]; type: functional
# T4 sequence (P35236 whole entry): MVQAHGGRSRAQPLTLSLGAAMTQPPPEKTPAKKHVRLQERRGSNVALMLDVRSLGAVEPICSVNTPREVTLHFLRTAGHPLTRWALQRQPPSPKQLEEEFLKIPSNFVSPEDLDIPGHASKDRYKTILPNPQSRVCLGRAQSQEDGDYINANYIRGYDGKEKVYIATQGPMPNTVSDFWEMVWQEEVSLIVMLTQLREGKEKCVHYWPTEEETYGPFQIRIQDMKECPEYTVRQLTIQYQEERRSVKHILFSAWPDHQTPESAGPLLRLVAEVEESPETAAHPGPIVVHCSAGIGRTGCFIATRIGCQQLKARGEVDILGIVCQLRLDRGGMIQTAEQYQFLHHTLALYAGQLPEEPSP
# [15] = molecular target: Dual specificity protein phosphatase 3 (Homo sapiens, UniProt P51452); assay: SAR VHR1 Fluorescent Assay for In Vitro dose response studies Set 2. [Related pubchem assays (depositor defined):AID1654, AID1661, AID1878]; type: functional
# [16] = molecular target: Intestinal-type alkaline phosphatase (Homo sapiens, UniProt P09923); assay: human intestinal alkaline phosphatase activators, dose response, biochemical, luminescence, uHTS hits (AID 463120); type: functional
# [17] = molecular target: T5, Corticotropin-releasing factor receptor 2/Corticotropin-releasing factor-binding protein (Homo sapiens, UniProt P24387+Q13324); assay: activators of CRF receptor 2 with binding protein – uHTS hits, confirmation (AID 602473); type: functional; conditions: read-out: EC50_Mean
# T5 sequence (Q13324 whole entry): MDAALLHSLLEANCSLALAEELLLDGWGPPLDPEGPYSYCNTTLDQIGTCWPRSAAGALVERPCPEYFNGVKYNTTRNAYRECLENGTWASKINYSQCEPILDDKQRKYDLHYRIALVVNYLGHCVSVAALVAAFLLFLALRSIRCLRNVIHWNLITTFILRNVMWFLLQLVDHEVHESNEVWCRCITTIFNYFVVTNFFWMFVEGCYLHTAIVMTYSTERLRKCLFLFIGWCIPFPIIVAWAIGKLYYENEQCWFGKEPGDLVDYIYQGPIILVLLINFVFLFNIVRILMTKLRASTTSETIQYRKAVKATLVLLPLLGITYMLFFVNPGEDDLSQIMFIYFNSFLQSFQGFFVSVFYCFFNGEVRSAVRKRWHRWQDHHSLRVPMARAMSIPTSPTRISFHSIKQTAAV
# T5 sequence (P24387 whole entry): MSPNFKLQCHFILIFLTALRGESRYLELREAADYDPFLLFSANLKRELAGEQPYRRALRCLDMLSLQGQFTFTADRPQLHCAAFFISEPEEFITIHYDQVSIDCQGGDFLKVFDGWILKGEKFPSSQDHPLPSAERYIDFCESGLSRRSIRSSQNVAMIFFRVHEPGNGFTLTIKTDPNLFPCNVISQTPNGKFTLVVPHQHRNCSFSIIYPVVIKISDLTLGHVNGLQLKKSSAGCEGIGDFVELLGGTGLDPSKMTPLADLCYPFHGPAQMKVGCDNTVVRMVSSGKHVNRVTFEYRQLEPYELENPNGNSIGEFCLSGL
# Troponin, cardiac muscle = Troponin, cardiac muscle (Homo sapiens, UniProt P19429+P45379+P63316); assay: Fluorescence-based biochemical high throughput dose response assay for activators of the calcium sensitivity of cardiac Regulated Thin Filaments (RTF). [Related pubchem assays (depositor defined):AID493008, AID493018, AID504382, AID504383]; type: protein-complex assay
# Sequence of Large T antigen (P03070 whole entry): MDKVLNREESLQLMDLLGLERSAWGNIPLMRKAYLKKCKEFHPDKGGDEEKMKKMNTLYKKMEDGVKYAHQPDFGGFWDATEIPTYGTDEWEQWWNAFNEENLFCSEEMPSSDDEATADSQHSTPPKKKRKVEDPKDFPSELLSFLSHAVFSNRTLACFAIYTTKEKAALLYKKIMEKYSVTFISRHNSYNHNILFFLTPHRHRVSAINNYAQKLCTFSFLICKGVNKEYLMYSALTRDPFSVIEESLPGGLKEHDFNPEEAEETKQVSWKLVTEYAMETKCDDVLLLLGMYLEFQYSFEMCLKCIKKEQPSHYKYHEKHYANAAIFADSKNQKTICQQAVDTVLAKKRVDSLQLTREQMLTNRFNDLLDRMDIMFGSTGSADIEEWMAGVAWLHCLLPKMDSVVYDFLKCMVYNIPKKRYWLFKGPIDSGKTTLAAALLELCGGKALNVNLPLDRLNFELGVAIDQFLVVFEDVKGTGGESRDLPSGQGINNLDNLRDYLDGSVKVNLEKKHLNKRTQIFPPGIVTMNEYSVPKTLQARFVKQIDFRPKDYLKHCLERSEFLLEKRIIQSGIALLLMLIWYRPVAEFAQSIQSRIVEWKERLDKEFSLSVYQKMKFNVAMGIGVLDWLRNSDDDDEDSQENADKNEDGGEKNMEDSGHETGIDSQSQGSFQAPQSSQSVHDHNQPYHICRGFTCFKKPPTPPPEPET
# Sequence of Hexokinase-1 (P19367 whole entry): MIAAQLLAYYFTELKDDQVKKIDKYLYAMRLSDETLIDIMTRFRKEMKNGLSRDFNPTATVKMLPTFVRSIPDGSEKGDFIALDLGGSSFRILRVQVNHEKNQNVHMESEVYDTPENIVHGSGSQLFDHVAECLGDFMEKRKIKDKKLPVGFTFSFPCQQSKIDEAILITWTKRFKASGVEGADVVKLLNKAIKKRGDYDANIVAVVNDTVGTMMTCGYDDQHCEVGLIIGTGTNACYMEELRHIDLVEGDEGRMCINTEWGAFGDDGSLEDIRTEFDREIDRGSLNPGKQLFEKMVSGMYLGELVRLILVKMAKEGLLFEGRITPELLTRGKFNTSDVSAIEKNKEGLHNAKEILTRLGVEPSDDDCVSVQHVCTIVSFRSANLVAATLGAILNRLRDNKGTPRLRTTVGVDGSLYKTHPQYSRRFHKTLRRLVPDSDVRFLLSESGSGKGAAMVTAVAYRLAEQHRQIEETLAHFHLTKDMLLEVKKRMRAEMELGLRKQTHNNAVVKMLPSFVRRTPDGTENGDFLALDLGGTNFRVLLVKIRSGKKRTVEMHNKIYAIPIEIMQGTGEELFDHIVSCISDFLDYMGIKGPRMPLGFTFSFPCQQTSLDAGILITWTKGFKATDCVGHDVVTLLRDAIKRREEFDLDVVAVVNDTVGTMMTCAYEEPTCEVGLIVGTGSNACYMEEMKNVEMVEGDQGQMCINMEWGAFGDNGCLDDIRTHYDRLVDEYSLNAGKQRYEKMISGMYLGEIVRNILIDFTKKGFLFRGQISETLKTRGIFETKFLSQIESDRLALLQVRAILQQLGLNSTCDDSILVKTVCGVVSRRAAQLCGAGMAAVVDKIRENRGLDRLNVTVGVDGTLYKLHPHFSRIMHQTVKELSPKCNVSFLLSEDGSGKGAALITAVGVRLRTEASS
# Sequence of Dual specificity protein phosphatase 3 (P51452 whole entry): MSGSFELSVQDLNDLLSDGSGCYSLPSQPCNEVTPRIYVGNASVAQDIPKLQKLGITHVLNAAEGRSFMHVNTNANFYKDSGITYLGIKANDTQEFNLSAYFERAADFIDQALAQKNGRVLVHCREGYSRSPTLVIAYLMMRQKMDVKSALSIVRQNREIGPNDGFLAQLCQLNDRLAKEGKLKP
# Sequence of Intestinal-type alkaline phosphatase (P09923 whole entry): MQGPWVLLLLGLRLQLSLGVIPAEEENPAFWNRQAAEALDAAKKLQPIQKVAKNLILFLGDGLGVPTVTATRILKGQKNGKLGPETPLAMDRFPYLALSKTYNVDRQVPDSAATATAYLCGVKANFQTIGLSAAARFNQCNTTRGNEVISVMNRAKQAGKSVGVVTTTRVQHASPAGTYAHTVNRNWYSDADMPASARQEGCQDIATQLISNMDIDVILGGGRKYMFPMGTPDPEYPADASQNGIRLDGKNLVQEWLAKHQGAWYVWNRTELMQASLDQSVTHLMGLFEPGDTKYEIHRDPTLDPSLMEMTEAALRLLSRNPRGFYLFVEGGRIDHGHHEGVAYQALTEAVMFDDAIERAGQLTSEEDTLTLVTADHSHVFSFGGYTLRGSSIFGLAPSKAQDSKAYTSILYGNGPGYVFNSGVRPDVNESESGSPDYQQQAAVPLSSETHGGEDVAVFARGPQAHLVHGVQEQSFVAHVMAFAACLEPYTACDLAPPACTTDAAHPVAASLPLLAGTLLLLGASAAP
compound,measurement,setting,value
CCCCC1=CC2=CC(=O)C(C)(OC(=O)CC)C(=O)C2=CN1c1ccccc1 (stereo not drawn),EC50,[1],> 100 µM (inactive)
CC(C)c1cc(C(C)(C)c2ccc(O)c(C(C)C)c2)ccc1O,IC50,Large T antigen,26.7 µM (active)
same,IC50,[2],11.9 µM (active)
Cc1[nH]n(-c2ccccc2)c(=O)c1/C=N/Nc1nncc(-c2ccccc2)n1,EC50,[3],2.39 µM (active)
same,AC50,HEK293,2.45 µM (active)
same,EC50,BJ [4],2.76 µM (active)
same,IC50,[5],3.5 µM (active)
same,EC50,BJ [6],3.06 µM (active)
same,EC50,[7],0.155 µM (active)
same,IC50,[8],> 80 µM (inactive)
same,EC50,[9],2.32 µM (active)
same,EC50,[10],0.733 µM (active)
same,EC50,Hexokinase-1,> 80 µM (inactive)
same,EC50,[11],0.173 µM (active)
same,EC50,BJ [12],0.471 µM (inconclusive)
same,EC50,Hexokinase HKDC1,6.69 µM (active)
same,EC50,[13],2.54 µM (active)
same,AC50,INS1,0.394 µM (active)
O=S(=O)(c1ccc(NC(=S)N2CCN(Cc3ccc4c(c3)OCO4)CC2)cc1)N1CCOCC1,IC50,[14],79.6 µM (active)
same,IC50,[15],> 100 µM (inactive)
CCC1CCCCN1C1Sc2ccc(C(=O)OC)cc2NC1=O (stereo not drawn),EC50,[16],> 100 µM (inactive)
CCOC(=O)c1sc(-c2ccc(F)cc2)cc1NC(=O)Nc1ccccc1OC,EC50,[17],> 53 µM (inactive)
same,EC50,"Troponin, cardiac muscle",> 71.4 µM (inactive)

# — ChEMBL document CHEMBL1201862, “PubChem BioAssay data set” (2004)
